{
  "source": "patent US12195559B2",
  "about": "“CDCA1-derived peptide and vaccine containing same” (ONCOTHERAPY SCIENCE, INC., priority 2018, dated 2025)",
  "key": {"peptide-pulsed C1R-A01 [1]": {"test_system": "peptide-pulsed C1R-A01", "assay": "In vitro CTL induction, IFN-gamma ELISPOT assay", "type": "cell-based, human", "settings": "CD8-positive T cells from HLA-A*01:01-positive donors stimulated with DCs pulsed with 20 micro-g/ml peptide, target C1R-A01 pulsed vs not pulsed", "protocol": "C1R cells (C1R-A01) that constitutively express HLA-A*01:01 was used as cells for stimulating CTLs. A cDNA encoding the HLA-A*01:01 gene was amplified by PCR and introduced into an expression vector. C1R cells incorporated with HLA-A*01:01 gene expression vector were cultured for two weeks under drug selection with a medium containing G418 (Invitrogen). After diluting G418-resistant C1R cell suspension, the cells were seeded into a 96-well plate, and subjected to selective culture for another 30 days with a medium containing G418. The HLA-A*01:01 expression in C1R cells was verified by flow cytometric analysis.\nMonocyte-derived dendritic cells (DCs) were used as the antigen-presenting cell to induce a cytotoxic T lymphocyte (CTL) specific to peptides presented on human leukocyte antigens (HLAs). DCs were prepared in vitro as already reported in the literature (Nakahara S et al., Cancer Res 2003, 63(14): 4112-8). Specifically, peripheral-blood mononuclear cells (PBMCs) collected from healthy volunteers (HLA-A*01:01-positive) with the Ficoll-Paque plus solution (Pharmacia) were seeded into plastic tissue culture dishes (Corning) to allow attachment of monocytes in PBMCs to the dishes. Then, the cells were cultured in the presence of 1000 IU/ml granulocyte macrophage colony-stimulating factor (R&D System) and 1000 IU/ml interleukin (IL)-4 (R&D System) for seven days. As medium, an AIM-V medium (Invitrogen) containing inactivated AB type serum (MP Biomedicals) was used (2% ABS/AIM-V medium). […] Peptide pulsing was performed in the AIM-V medium. These peptide-pulsed DCs were inactivated by X-ray irradiation (20 Gy), and mixed in a 1:20 ratio with autologous CD8-positive T cells obtained by using the CD8 Positive Isolation Kit (Invitrogen) (1.5×10^4 DCs and 3×10^5 CD8-positive T cells), and cultured in a 48-well plate (Corning). The volume of 2% ABS/AIM-V medium was 0.5 ml per 1 well, and IL-7 (R&D System) was added (final concentration: 10 ng/ml) to the well. Two days after the start of culture, IL-2 (Novartis) was added thereto (final concentration: 20 IU/ml). On 7th day of culture and 14th day of culture, CD8-positive T cells were further stimulated with peptide-pulsed DCs. The DCs were prepared before use by the same method as above. On 21st day or thereafter (after the third DC stimulation), IFN-gamma production of CD8-positive T cells against peptide-pulsed C1R-A01 was confirmed by enzyme-linked immunospot (ELISPOT) assay (Tanaka H et al., Br J Cancer 2001, 84(1): 94-9; Umano Y et al., Br J Cancer 2001, 84(8): 1052-7; Uchida N et al., Clin Cancer Res 2004, 10(24): 8577-86; Suda T et al., Cancer Sci 2006, 97(5): 411-9; Watanabe T et al., Cancer Sci 2005, 96(8): 498-506).\n(§1) C1R-A01 pulsed with a peptide was prepared as target cells. The IFN-gamma ELISPOT assay and IFN-gamma ELISA were performed according to the procedures recommended by the assay kit manufacturer."}, "[2]": {"test_system": "COS7 cells expressing CDCA1 and HLA-A*01:01", "assay": "IFN-gamma production of CTL clone against target cells expressing CDCA1 and HLA-A*01:01", "type": "cell-based, African green monkey", "protocol": "as §1\nThe cDNA encoding the CDCA1 or HLA-A*01:01 gene were amplified by PCR. Each PCR amplified product was incorporated into an expression vector. Using Lipofectamine 2000 (Invitrogen), either or both of the CDCA1 gene expression vector and the HLA-A*01:01 gene expression vector were introduced into COS7 cells, an HLA-negative cell line, according to the procedure recommended by the manufacturer. On the next day of the gene introduction, the COS7 cells were separated using Versene (Invitrogen) and used as target cells."}, "peptide-pulsed C1R-A01 [3]": {"test_system": "peptide-pulsed C1R-A01", "assay": "IFN-gamma ELISA of CTL clones established by limiting dilution", "type": "cell-based, human", "settings": "CTL clones against peptide-pulsed vs non-pulsed target cells", "protocol": "CTLs were propagated using a method similar to that reported by Riddell et al. (Walter E A et al., N Engl J Med 1995, 333(16): 1038-44; Riddell S R et al., Nat Med 1996, 2(2): 216-23). In a flask for tissue culture (FALCON), the CTLs were cultured in 5% ABS/AIM-V medium (culture solution volume: 25 ml/flask) with two types of human B lymphoblastoid cell lines (5×10^6 cells each) treated with mitomycin C and anti-CD3 antibody (BD biosciences, final concentration: 40 ng/ml). On the next day after the culturing was started, IL-2 was added to the culture (IL-2 final concentration: 120 IU/ml). On days 5, 8, and 11, the medium was changed to 5% ABS/AIM-V medium containing 60 IU/ml IL-2 (IL-2 final concentration: 30 IU/ml) (Tanaka H et al., Br J Cancer 2001, 84(1): 94-9; Umano Y et al., Br J Cancer 2001, 84(8): 1052-7; Uchida N et al., Clin Cancer Res 2004, 10(24): 8577-86; Suda T et al., Cancer Sci 2006, 97(5): 411-9; Watanabe T et al., Cancer Sci 2005, 96(8): 498-506).\nAfter CTLs were induced in vitro, the CTLs were seeded at 1 cell/well or 10 cells/well in a 96-well round-bottomed microplate (Corning). The CTLs were cultured in 5% ABS/AIM-V medium (culture solution volume: […]) with two types of human B lymphoblastoid cell lines (1×10^4 cells each) treated with mitomycin C, anti-CD3 antibody (final concentration: 30 ng/ml), and IL-2 (final concentration: 125 IU/ml). After 10 days, […] of 5% ABS/AIM-V medium containing 500 IU/ml IL-2 was added to the culture.\nas §1"}},
  "note": "Entries after “also recorded” stand apart in the source; their conditions may differ.",
  "data": [
    {"sequence": "SCQLEVQLY (a peptide derived from CDCA1) [SEQ ID NO: 37, CDCA1-derived 9mer peptide, start position 288]", "values": [
      {"measurement": "Peptide-specific IFN-gamma production (CTL induction)", "setting": "peptide-pulsed C1R-A01 [1]; listed as CDCA1-A01-9-288", "value": "Peptide-specific IFN-gamma production relative to the control well was observed; also recorded: able to induce CTLs that showed peptide-specific IFN-gamma production"}
    ]},
    {"sequence": "ARQEVVEKY (a peptide derived from CDCA1) [SEQ ID NO: 35, CDCA1-derived 9mer peptide, start position 268]", "values": [
      {"measurement": "Peptide-specific IFN-gamma production (CTL induction)", "setting": "peptide-pulsed C1R-A01 [1]; listed as CDCA1-A01-9-268", "value": "Peptide-specific IFN-gamma production relative to the control well was observed; also recorded: able to induce CTLs that showed peptide-specific IFN-gamma production"}
    ]},
    {"sequence": "YMEFLWQY (a peptide derived from CDCA1) [SEQ ID NO: 1, CDCA1-derived 8mer peptide, start position 138]", "values": [
      {"measurement": "Peptide-specific IFN-gamma production (CTL induction)", "setting": "peptide-pulsed C1R-A01 [1]; listed as CDCA1-A01-8-138", "value": "Peptide-specific IFN-gamma production relative to the control well was observed; also recorded: able to induce CTLs that showed peptide-specific IFN-gamma production"}
    ]},
    {"sequence": "ETYMEFLWQY (a peptide derived from CDCA1) [SEQ ID NO: 8, CDCA1-derived 10mer peptide, start position 136]", "values": [
      {"measurement": "Peptide-specific IFN-gamma production (CTL induction)", "setting": "peptide-pulsed C1R-A01 [1]; listed as CDCA1-A01-10-136", "value": "Peptide-specific IFN-gamma production relative to the control well was observed; also recorded: able to induce CTLs that showed peptide-specific IFN-gamma production"},
      {"measurement": "IFN-gamma production of CTL clone against target cells", "setting": "[2]; COS7 cells expressing both CDCA1 and HLA-A*01:01", "value": "showed IFN-gamma production"},
      {"measurement": "IFN-gamma production of CTL clone against negative control cells", "setting": "[2]; COS7 cells expressing either CDCA1 or HLA-A*01:01, listed as CDCA1-A01-10-136", "value": "no significant IFN-gamma production was observed; also recorded: did not show significant IFN-gamma production"},
      {"measurement": "Peptide-specific IFN-gamma production of CTL clones", "setting": "peptide-pulsed C1R-A01 [3]; listed as CDCA1-A01-10-136", "value": "showed peptide-specific IFN-gamma production"}
    ]},
    {"sequence": "IYMRALQIVY (a peptide derived from CDCA1) [SEQ ID NO: 13, CDCA1-derived 10mer peptide, start position 48]", "values": [
      {"measurement": "Peptide-specific IFN-gamma production (CTL induction)", "setting": "peptide-pulsed C1R-A01 [1]; listed as CDCA1-A01-10-48", "value": "Peptide-specific IFN-gamma production relative to the control well was observed; also recorded: able to induce CTLs that showed peptide-specific IFN-gamma production"},
      {"measurement": "Peptide-specific IFN-gamma production of CTL clones", "setting": "peptide-pulsed C1R-A01 [3]; listed as CDCA1-A01-10-48", "value": "showed peptide-specific IFN-gamma production"}
    ]},
    {"sequence": "QLVQLYQK (QLEVQLYQK; a peptide derived from CDCA1) [SEQ ID NO: 25, CDCA1-derived 9mer peptide, start position 290]", "values": [
      {"measurement": "Peptide-specific IFN-gamma production (CTL induction)", "setting": "peptide-pulsed C1R-A01 [1]; listed as CDCA1-A01-9-290", "value": "Peptide-specific IFN-gamma production relative to the control well was observed; also recorded: able to induce CTLs that showed peptide-specific IFN-gamma production"}
    ]},
    {"sequence": "VYGIRLEHFY (a peptide derived from CDCA1) [SEQ ID NO: 10, CDCA1-derived 10mer peptide, start position 56]", "values": [
      {"measurement": "Peptide-specific IFN-gamma production (CTL induction)", "setting": "peptide-pulsed C1R-A01 [1]; listed as CDCA1-A01-10-56", "value": "Peptide-specific IFN-gamma production relative to the control well was observed; also recorded: able to induce CTLs that showed peptide-specific IFN-gamma production"},
      {"measurement": "Peptide-specific IFN-gamma production of CTL clones", "setting": "peptide-pulsed C1R-A01 [3]; listed as CDCA1-A01-10-56", "value": "showed peptide-specific IFN-gamma production"}
    ]},
    {"sequence": "MMPVNSEVMY (a peptide derived from CDCA1) [SEQ ID NO: 9, CDCA1-derived 10mer peptide, start position 66]", "values": [
      {"measurement": "Peptide-specific IFN-gamma production (CTL induction)", "setting": "peptide-pulsed C1R-A01 [1]; listed as CDCA1-A01-10-66", "value": "No IFN-gamma production; also recorded: peptide-specific IFN-gamma production was not observed"}
    ]},
    {"sequence": "FREACRETY (a peptide derived from CDCA1) [SEQ ID NO: 33, CDCA1-derived 9mer peptide, start position 130]", "values": [
      {"measurement": "Peptide-specific IFN-gamma production (CTL induction)", "setting": "peptide-pulsed C1R-A01 [1]; listed as CDCA1-A01-9-130", "value": "Peptide-specific IFN-gamma production relative to the control well was observed; also recorded: able to induce CTLs that showed peptide-specific IFN-gamma production"}
    ]},
    {"sequence": "DSPEKLKNY (a peptide derived from CDCA1) [SEQ ID NO: 34, CDCA1-derived 9mer peptide, start position 246]", "values": [
      {"measurement": "Peptide-specific IFN-gamma production (CTL induction)", "setting": "peptide-pulsed C1R-A01 [1]; listed as CDCA1-A01-9-246", "value": "Peptide-specific IFN-gamma production relative to the control well was observed; also recorded: able to induce CTLs that showed peptide-specific IFN-gamma production"}
    ]}
  ]
}
